Measured values published in patent US8273716B2, “Use of LHRH antagonists for intermittent treatments” (Spectrum Pharmaceuticals, Inc., priority 2008, dated 2012).

Legend:
[1] = in vivo; cited from earlier work
LHRH receptor = LHRH receptor (Homo sapiens, UniProt P30968); details: Cho N et al., J. Med. Chem. 1998; cited from earlier work
study subjects = assay: Treatment of study subjects with peroral daily doses according to intermittent administration schemes; format: in vivo, human; details: same doses and administration schemes; 50-150 mg perorally daily as a single dose
Description: (§1) Study subjects are treated with compound (76) with the following doses according to the following administration schemes: • in a 3 month trial, 75 mg or 150 mg compound (76) administered perorally daily as a single dose on day 2-7 of the menstrual cycle • in a 3 months trial, 75 mg, 100 mg or 150 mg compound (76) administered perorally daily as a single dose on day 2-7 of the menstrual cycle followed by a 3 months treatment-free period • in a 6 months trial, 75 mg or 150 mg compound (76) administered perorally daily as a single dose • 50 mg or 150 mg per compound (76) administered daily as a single dose over 42 days (6 weeks)
as §1, with “(68)” for “(76)”
as §1, with “36” for “(76)”
as §1, with “37” for “(76)”
as §1, with “52” for “(76)”
as §1, with “144” for “(76)”, “weeks) […]” for “weeks)”

Chain of LHRH receptor (P30968 whole entry): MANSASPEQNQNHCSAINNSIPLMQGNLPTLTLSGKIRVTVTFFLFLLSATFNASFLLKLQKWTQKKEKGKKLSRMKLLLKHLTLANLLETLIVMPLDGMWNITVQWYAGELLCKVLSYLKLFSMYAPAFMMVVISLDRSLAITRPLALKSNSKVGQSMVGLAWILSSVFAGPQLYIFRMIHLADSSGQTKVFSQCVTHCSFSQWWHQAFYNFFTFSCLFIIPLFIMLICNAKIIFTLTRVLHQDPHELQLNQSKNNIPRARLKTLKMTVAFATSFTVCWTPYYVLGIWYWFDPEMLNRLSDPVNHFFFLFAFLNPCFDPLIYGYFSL

Compound	prevention of chemical (hormonal) castration (study subjects)	bioavailability [1]	receptor affinity (LHRH receptor)
CC(C)OC(=O)c1cn(Cc2c(F)cccc2F)c2sc(-c3ccc(NC(=O)C(C)C)cc3)c(CN(C)Cc3ccccc3)c2c1=O [T-98475]		low	high
CCC(C)[C@H](NC(=O)Cc1ccccc1F)C(=O)N[C@]1(C(=O)N[C@H](C(=S)NCN2CCOCC2)C(C)CC)CCc2[nH]c3c(C(F)(F)F)cccc3c2C1 (stereo partly drawn) [Compound 37, (R)-3-{(S)-2-[2-(2-Fluoro-phenyl)-acetylamino]-3-methyl-pentanoylamino}-8-trifluoromethyl-2,3,4,9-tetrahydro-1H-carbazole-3-carboxylic acid {(S)-2-methyl-1-[(morpholin-4-ylmethyl)-thiocarbamoyl]-butyl}-amide]	successfully prevented		
CCC(C)[C@H](NC(=O)Cc1ccccc1F)C(=O)N[C@]1(C(=O)N[C@H](C(=O)NCN2CCOCC2)C(C)CC)CCc2[nH]c3c(C(F)(F)F)cccc3c2C1 (stereo partly drawn) [Compound 36, (R)-3-{(S)-2-[2-(2-Fluoro-phenyl)-acetylamino]-3-methyl-pentanoylamino}-8-trifluoromethyl-2,3,4,9-tetrahydro-1H-carbazole-3-carboxylic acid {(S)-2-methyl-1-[(morpholin-4-ylmethyl)-carbamoyl]-butyl}-amide]	successfully prevented		
CCC(C)[C@H](NC(=O)Cc1ccccc1F)C(=O)N[C@]1(C(=O)N[C@H](C(N)=S)C(C)CC)CCc2[nH]c3c(C(F)(F)F)cccc3c2C1 (stereo partly drawn) [compound (76), (R)-3-{(S)-2-[2-(2-fluorophenyl)acetylamino]-3-methylpentanoylamino}-8-trifluoro-methyl-2,3,4,9-tetrahydro-1H-carbazole-3-carboxylic acid ((S)-2-methyl-1-thio-carbamoylbutyl)amide]	successfully prevented		
CCC(C)[C@H](NC(=O)Cc1ccccc1F)C(=O)N[C@]1(C(=O)N[C@H](C(N)=S)C(C)CC)CCc2[nH]c3c(Cl)cc(F)cc3c2C1 (some centres unmarked) [compound (68)]	successfully prevented		

Now from value to compound, other results behind:

prevention of chemical (hormonal) castration (study subjects)	Compound	bioavailability [1]	receptor affinity (LHRH receptor)
successfully prevented	CCC(C)[C@H](NC(=O)Cc1ccccc1F)C(=O)N[C@]1(C(=O)N[C@H](C(=S)NCC2CCOCC2)C(C)CC)CCc2[nH]c3c(C(F)(F)F)cccc3c2C1 (stereo partly drawn) [Compound 52, (R)-3-{(S)-2-[2-(2-Fluoro-phenyl)-acetylamino]-3-methyl-pentanoylamino}-8-trifluoromethyl-2,3,4,9-tetrahydro-1H-carbazole-3-carboxylic acid {(S)-2-methyl-1-[(tetrahydro-pyran-4-ylmethyl)-thiocarbamoyl]-butyl}-amide]		
successfully prevented	CCC(C)[C@H](NC(=O)Cc1ccccc1F)C(=O)N[C@]1(C(=O)N[C@H](C(=O)NNc2ccccc2)C(C)CC)CCc2[nH]c3c(C(F)(F)F)cccc3c2C1 (stereo partly drawn) [Compound 144, (R)-3-{(S)-2-[2-(2-Fluoro-phenyl)-acetylamino]-3-methyl-pentanoylamino}-8-trifluoromethyl-2,3,4,9-tetrahydro-1H-carbazole-3-carboxylic acid [(S)-2-methyl-1-(N′-phenyl-hydrazinocarbonyl)-butyl]-amide]		
